According to PMC6017654, “Ionic Liquid-Promoted Synthesis of Novel Chromone-Pyrimidine Coupled Derivatives, Antimicrobial Analysis, Enzyme Assay, Docking Study and Toxicity Study” (Molecules : A Journal of Synthetic Chemistry and Natural …, 2018):
In brackets after ≈: the same amount, converted by molar mass.

Legend:
[1] = In vitro cytotoxicity, Sulforhodamine B (SRB) assay; assay type: cell-based, human; details: human, range 80 to 0.55 μg/mL
Text: (§1) Toxicity scrutiny of synthesized compounds at the early phase of research paves the way to clinical trials and reduces the failure of potential therapeutics at later stages of clinical trials. To scrutinize the safety and selectivity of antimicrobial activity of the synthesized compounds, the compounds 6c and 6f were appraised for their toxicity against HeLa (a human cervical cancer cell line) and PC-3 (human prostate cancer cell line) by the Sulforhodamine B (SRB) assay using adriamycin as a standard drug.
(§2) The images were captured using an Eclipse Ti-S Inverted Research Microscope (Nikon, Tokyo, Japan). Image processing software used was NIS-Elements.

[2] = system: HeLa (human cervical cancer cell line); test: as above; assay type: cell-based; details: up to 80 µg/mL
Text: as §1, §2

Fusarium oxysporum = test: In vitro antifungal activity (MIC100, CLSI/NCCLS); assay type: cell-based; details: F. oxy., average of three readings, read-out: MIC 100
Protocol: (§3) The newly synthesized derivatives 4(a–f) and 6(a–f) were screened for their in vitro antifungal activity against different yeast and filamentous fungal pathogens. Minimum inhibitory concentration (MIC100) values for in vitro antifungal activity were determined by the methods recommended by National Committee for Clinical Laboratory Standards (NCCLS). Miconazole was used as standard drug. Dimethyl sulfoxide (DMSO) was used as solvent control.
(§4) In vitro antifungal activity was determined as per CLSI (formerly, NCCLS) guidelines. […] The medium yeast nitrogen base was dissolved in phosphate buffer pH 7 and it was autoclaved at 110 °C for 10 min. With each set a growth control without the antifungal agent and solvent control DMSO were included. The fungal strains were freshly sub cultured on to Sabouraud dextrose agar (SDA) and incubated at 25 °C for 72 h. The fungal cells were suspended in sterile distilled water and diluted to get 10^5 cells/mL. Further, ten microlitres of the standardized suspension was inoculated onto the control plates and the media incorporated with the antifungal agents. The inoculated plates were incubated at 25 °C for 48 h. The readings were taken at the end of 48 h and 72 h. The MIC was the lowest concentration of drug preventing growth of macroscopically visible colonies on drug containing plates when there was visible growth on the drug free control plates.

Cryptococcus neoformans = test: In vitro antifungal activity (MIC100, CLSI/NCCLS); assay type: cell-based; details: C. neo., average of three readings, read-out: MIC 100
Protocol: as §3, §4

Candida glabrata = test: In vitro antifungal activity (MIC100, CLSI/NCCLS); assay type: cell-based; details: Nakaseomyces glabratus; C. glab.; average of three readings; read-out: MIC 100
Protocol: as §3, §4

A. flavus = test: In vitro antifungal activity (MIC100, CLSI/NCCLS); assay type: cell-based; details: Aspergillus flavus; A. fla.; average of three readings; read-out: MIC 100
Protocol: as §3, §4

Aspergillus fumigates = test: In vitro antifungal activity (MIC100, CLSI/NCCLS); assay type: cell-based; details: A. fum., average of three readings, read-out: MIC 100
Protocol: as §3, §4

Candida albicans = test: In vitro antifungal activity (MIC100, CLSI/NCCLS); assay type: cell-based; details: C. alb., average of three readings, read-out: MIC 100
Protocol: as §3, §4

Aspergillus niger = test: In vitro antifungal activity (MIC100, CLSI/NCCLS); assay type: cell-based; details: A. nig., average of three readings, read-out: MIC 100
Protocol: as §3, §4

Swiss albino mice = test: In vivo acute oral toxicity study and gross behavioral study (OECD guideline No. 425)
Protocol: The in vivo acute oral toxicity and gross behavioral study results of the newly synthesized compounds 6c and 6f are as listed in Table 12 [26].
Each group, consisting of six Swiss albino mice (18–22 gm weight, overnight fasted), were kept in colony cage at 25 ± 2 °C with 55% relative humidity and 12 h of light and dark cycle. A specified dose of 100, 250, 500, 750, 1000, 1500 and 2000 mg/kg body weight of mice was administered orally as a single dose. The acute toxic symptoms and the behavioral changes produced by the test compounds were observed continuously for 4 h periods at 8th, 12th and 24th h on set of toxic symptoms and the gross behavioral changes were also recorded. These animals were maintained for further 10 days with observation made daily. The in vivo acute oral toxicity study was carried out at animal house at the Y.B. Chavan College of Pharmacy, Aurangabad IAEC approval number CPCSEA/IAEC/P’col-52/2015-16/115 [26].

[3] = system: Staphylococcus aureus (NCIM-2901); test: In vitro antibacterial activity (MIC100, two fold serial dilution, NCCLS); assay type: cell-based; details: Staphylococcus aureus, NCIM2901, 24 h, read-out: MIC100, S. aureus NCIM-2901, average of three readings
Protocol: (§5) All the synthesized compounds 4(a–f) and 6(a–f) were screened for their in vitro antibacterial activity against Staphylococcus aureus (NCIM-2901), Escherichia coli 1411 (standard laboratory strains) and Escherichia coli SM1411 (an acrAB deficient derivative of 1411). Minimum inhibitory concentration (MIC100) values were determined using methods recommended by National Committee for Clinical Laboratory Standards (NCCLS). Dimethyl sulfoxide (DMSO) was used as solvent control.
(§6) All the synthesized compounds 4(a–f) and 6(a–f) were screened for their in vitro antibacterial activity against Staphylococcus aureus (NCIM-2901) and Escherichia coli 1411 (standard laboratory strains) and Escherichia coli SM1411 (an acrAB deficient derivative of 1411). Minimum inhibitory concentration (MIC100) values were determined using the method recommended by National Committee for Clinical Laboratory Standards (NCCLS). In vitro antibacterial activities of the synthesized compounds 4(a–f) and 6(a–f) were tested in Nutrient Broth (NB) for Bacteria by the two fold serial dilution method. Seeded broth (broth containing microbial spores) was prepared in NB from 24 h old bacterial cultures on nutrient agar (Hi-media) at 37 ± 1 °C. The bacterial suspension was adjusted with sterile saline to a concentration of […]. The synthesized compounds and standard drug D-cycloserine were prepared by two fold serial dilutions to obtain the required concentrations. The tubes were incubated in BOD incubators at 37 ± 1 °C for bacteria. The MICs were recorded by visual observations after 24 h (for bacteria) of incubation.

Escherichia coli 1411 = test: as above; assay type: cell-based; details: Escherichia coli, 1411, 24 h, read-out: MIC100
Protocol: as §5, §6

[4] = system: Escherichia coli SM1411 (an acrAB deficient derivative of 1411); test: as above; assay type: cell-based; details: 24 h, read-out: MIC100
Protocol: as §5, §6

DdlB from E.coli = DdlB from E.coli (Escherichia coli, UniProt P07862); test: D-Alanine-D-alanine ligase (DdlB) enzyme inhibition, malachite green method; assay type: biochemical; details: 37 °C, 30 min incubation, 5% DMSO
Protocol: The key enzyme involved in the peptidoglycan biosynthesis is D-alanine-D-alanine ligase (Ddl), making it an important target for drug discovery. Inhibition of DdlB as an essential enzyme in either Gram-positive or Gram-negative organisms leads to the loss of cell shape and integrity followed by bacterial death. The synthesized derivatives 4(a–f) and 6(a–f) were tested for their inhibitory activity on DdlB from E.coli. The results are presented as IC50 values.
The D-Ala-adding activity of DdlB ligase was monitored by the detection of orthophosphate generated during the reaction based on the colorimetric malachite green method described by Walsh et al.. […] All the compounds were soluble in the assay mixture containing 5% DMSO. After 30 min of incubation, 100 µL Biomol reagent was added. After 5 min, absorbance was read at 650 nm. Residual activity was calculated with respect to a similar assay without inhibitor. To exclude possible non-specific (promiscuous) inhibitors, representative compounds 4(a–f) and 6(a–f) were also tested in the presence of Tween (0.003%), Triton X-114 (0.005%), and SDS (420 µM), as described by McGovern et al.. No significant differences were found when compared to measurements without detergents.

[5] = system: ergosterol biosynthesis in Candida albicans (NCIM-3471); test: Ergosterol extraction and quantitation assay (UV sterol profile); assay type: cell-based; details: C. albicans NCIM3471; 6f 24 µg/mL, miconazole 25 µg/mL; 281.5 nm
Protocol: Changes in this absorption pattern are therefore indicative of interference in the synthetic pathway of ergosterol.
A single Candida albicans (NCIM-3471) colony from an overnight Sabouraud dextrose agar plate culture was used to inoculate 50 mL of Sabouraud dextrose broth for control and for various concentrations of the molecules. The cultures were incubated for 16 hours and harvested by centrifugation at 2700 rpm (856× g) for five min. The net weight of the cell pellet was determined. Three mL of 25% alcoholic potassium hydroxide solution was added to each pellet and vortex mixed for one min. Cell suspensions were transferred to sterile borosilicate glass screw-cap tubes and were incubated in an 85 °C water bath for one hour. Following incubation, the tubes were allowed to cool. Sterols were then extracted by addition of a mixture of 1 mL of sterile distilled water and 3 mL of n-heptane followed by vigorous vortex mixing for 3 min. The heptane layer was transferred to a clean borosilicate glass screw-cap tube and stored at −20 °C. Prior to analysis, 0.6 mL aliquot of sterol extract was diluted five fold in 100% ethanol and scanned spectrophotometrically between 240 nm and 300 nm with a spectrophotometer (UV-Visible Spectrophotometer 2100, Thermo Fischer Scientific, Waltham, MA, USA). The presence of ergosterol and the late sterol intermediate 24(28)-dehydroergosterol (DHE) in the extracted sample results in a characteristic four-peaked curve. The absence of detectable ergosterol in extracts was indicated by a flat line.
Sterols were extracted from cells and spectral profiles between 240 and 300 nm were determined.

| ergosterol peak in UV sterol profile at the MIC value [5] | SMILES | GI50 ([1]; HeLa cells, SRB assay) [µg/mL] | GI50 ([1]; PC-3 cells) [µg/mL] | cell inhibition [2] | MIC (Fusarium oxysporum) [µg/mL] | MIC (Cryptococcus neoformans) [µg/mL] | MIC (Candida glabrata) [µg/mL] | MIC (A. flavus) [µg/mL] | MIC (Aspergillus fumigates) [µg/mL] | MIC (Candida albicans) [µg/mL] | MIC (Aspergillus niger) [µg/mL] | No. of Deaths (Swiss albino mice; Swiss albino mice, single oral dose 100 to 2000 mg/kg) | lethal dose (Swiss albino mice; mice, oral, single dose, no mortality up to 2000 mg/kg) | MIC [3] [µg/mL] | MIC (Escherichia coli 1411) [µg/mL] | MIC [4] [µg/mL] | IC50 (DdlB from E.coli) [µM] |
| --- | --- | --- | --- | --- | --- | --- | --- | --- | --- | --- | --- | --- | --- | --- | --- | --- | --- |
| – | COc1cccc2c1C(=O)c1c(O)c3c(c(O)c1C2=O)C[C@@](O)(C(=O)CO)C[C@@H]3O[C@H]1C[C@H](N)[C@H](O)[C@H](C)O1 [Adriamycin, reference compound] | 0.5 (≈ 0.92 µM) | 0.5 (≈ 0.92 µM) | – | – | – | – | – | – | – | – | – | – | – | – | – | – |
| – | CC1=C(C(=O)NN)C(c2coc3ccc(F)cc3c2=O)NC(=O)N1 (centres unmarked) [Compound 6c, 4-(6-Fluoro-4-oxo-4H-chromen-3-yl)-6-methyl-2-oxo-1,2,3,4-tetrahydropyrimidine-5-carbohydrazide] | > 80 | > 80 | cell inhibition did not occur | 58 (≈ 175 µM) | 40 (≈ 120 µM) | 52 (≈ 156 µM) | 42 (≈ 126 µM) | 60 (≈ 181 µM) | 52 (≈ 156 µM) | 40 (≈ 120 µM) | N | above 2000 mg/kg body weight | 32 (≈ 96.3 µM) | 14 (≈ 42.1 µM) | 14 (≈ 42.1 µM) | 106 |
| inhibition of ergosterol | Clc1ccc(COC(Cn2ccnc2)c2ccc(Cl)cc2Cl)c(Cl)c1 (centres unmarked) [Miconazole, reference compound] | – | – | – | 25 (≈ 60.1 µM) | 12 (≈ 28.8 µM) | 25 (≈ 60.1 µM) | 12 (≈ 28.8 µM) | 35 (≈ 84.1 µM) | 25 (≈ 60.1 µM) | 12 (≈ 28.8 µM) | – | – | – | – | – | – |
